Data set [1] deals with Escherichia coli strain 25922. The data set is described as follows: Reduction of Escherichia coli in PBS after exposure to plant antimicrobials with and without silver (spread plate count). Type of data set: cell-based. The conditions noted are these: for effect of combination with silver ions on antimicrobial activity against E. coli: plant antimicrobial combined with silver ions in solution; for reduction with silver alone treatment (in words): 100 ppb silver alone, within 30 min of exposure. The protocol: Escherichia coli strain 25922 was obtained from the American Type Culture Collection (ATCC; Manassas, Va., USA) and was maintained on Tryptic Soy Agar (TSA; Difco, Sparks, Md., USA) with incubation for 18 to 24 h at 37° C. Prior to the start of each experiment, an Erlenmeyer flask containing 100 ml of Tryptic Soy Broth (TSB; Difco, Sparks, Md., USA) was inoculated with the organism and incubated on an orbital shaker (Model […]; New Brunswick Scientific, Edison, N.J., USA) at 300 rpm at 37° C. overnight. […] Beckman Coulter, Inc., Fullerton, Calif., USA). The pelleted cells were washed by re-suspension in 100 ml of physiological saline (0.85% NaCl) followed by centrifugation as described previously. This step was repeated one additional time. The final pellet was resuspended in 10 ml of sterile phosphate buffered saline (PBS; pH 7.4; Sigma-Aldrich, St. Louis, Mo., USA). […] A stock solution of silver (Ag) ions was prepared immediately prior to the start of each experiment by adding AgNO3 (J.T. Baker, Phillipsburg, N.Y., USA) to distilled water to obtain an Ag ion concentration of 100 mg/l (100 ppm). The Ag concentration was measured at the beginning of each experiment by a colorimetric procedure using a Hach DR/2000 spectrophotometer (Anonymous 1989). […] (Berkley, Calif., USA). […] Louis, Mo., USA). The plant antimicrobials were dissolved and diluted (volume to volume) to specific test concentrations using PBS. […] A control with E. coli in PBS but no added antimicrobials was also included. Purified stocks of the bacteria were added separately to the antimicrobial solutions (final concentration of […]) and the flasks were placed on an orbital shaker (300 rpm) for the duration of the experiment. Experiments were performed in triplicate at room temperature (24° C.) in 50 ml polypropylene conical tubes (Becton, Dickinson and Company, Franklin Lakes, N.J., USA). At predetermined time intervals, 100 μl samples were collected and neutralized with Dey Engley (D/E) neutralizing broth (Difco, Sparks, Md., USA) at a ratio of 1:10. The D/E is neutralizes the antimicrobial effect of silver whereas the plant antimicrobials are neutralized via dilution. Samples were assayed for bacterial enumeration immediately. Bacterial samples were ten-fold serially diluted in physiological saline as needed and the surviving bacteria were enumerated using the spread plate method on duplicate plates of Levine Eosin Methylene Blue Agar (EMB; Becton, Dickinson and Company, Franklin Lakes, N.J., USA). The plates were incubated at 37° C. for 24 hours and the surviving bacterial colonies were counted. Data were reported as logarithmic reduction using the formula […], where N0 was the concentration of E. coli at time zero and Nt was the surviving concentration at time t. A Student's t-test was used to determine if there were significant differences between the control and the antimicrobial treatments (the reductions were compared to the control after 30 min) or between the various treatments (for each exposure time).

The conditions of data set [2]: humans; based on epidemiological and pharmacokinetic data (WHO); cited from earlier work.

Regarding `O=C/C=C/c1ccccc1` [Cinnamaldehyde], in data set [1] (0.05% citral, 0.02% carvacrol or 0.1% cinnamaldehyde, alone or with 100 ppb Ag, PBS), the “exposure time within which the reduction was statistically significant (P≦0.05) compared to the control” value was not above 20 min. The “Reduction (Log10 ± standard deviation) in the population of Escherichia coli” value (from here on “Reduction (Log10 ± standard deviation)”) in data set [1] (Table 3, 1 min, 0.1% cinnamaldehyde (vol/vol), silver 100 ppb, PBS, inoculum 2.1 × 10^7 CFU/ml) was 0.05 ± 0.04 Log10; in data set [1] (Table 3, 5 min, 0.1% cinnamaldehyde (vol/vol), silver 100 ppb, PBS, inoculum 2.1 × 10^7 CFU/ml), 0.18 ± 0.04 Log10; in data set [1] (Table 3, 10 min, 0.1% cinnamaldehyde (vol/vol), silver 100 ppb, PBS, inoculum 2.1 × 10^7 CFU/ml), 0.17 ± 0.07 Log10; in data set [1] (Table 6, cinnamaldehyde 0.1% (vol/vol) in PBS, 1 min, inoculum 2.1 × 10^7 CFU/ml), 0.05 ± 0.04 Log10. For the same molecule, the “effect of combination with silver ions on antimicrobial activity against E. coli” value (“effect of combination with silver ions” below) in data set [1] is “enhanced or synergistic”.
Consider `CC(C)=CCCC(C)=CC=O` [Citral], for which the “Reduction (Log10 ± standard deviation)” value in data set [1] (Table 1, 1 min, 0.05% citral (vol/vol), silver 100 ppb, PBS, inoculum 1.7 × 10^7 CFU/ml) amounted to 0.06 ± 0.03 Log10. For the same molecule, the “effect of combination with silver ions” value in data set [1] was “enhanced or synergistic”.
As to `Cc1ccc(C(C)C)cc1O` [Carvacrol, carvacrol], the “effect of combination with silver ions” value in data set [1] was “enhanced or synergistic”.
In the case of `[Ag+]` [Silver], the “reduction with silver alone treatment (in words)” value in data set [1] was “no reductions were observed”; in data set [1] (listed as Ag), “No significant reductions”. The “Reduction (Log10 ± standard deviation)” value in data set [1] (Table 1, 30 min, 0.05% citral (vol/vol), silver 100 ppb, PBS, inoculum 1.7 × 10^7 CFU/ml) was 0.01 ± 0.04 Log10; in data set [1] (Table 2, 5 min, 0.02% carvacrol (vol/vol), silver 100 ppb, PBS, inoculum 2.9 × 10^7 CFU/ml), 0.08 ± 0.12 Log10; in data set [1] (Table 2, 10 min, 0.02% carvacrol (vol/vol), silver 100 ppb, PBS, inoculum 2.9 × 10^7 CFU/ml), 0.00 ± 0.06 Log10; in data set [1] (Table 2, 30 min, 0.02% carvacrol (vol/vol), silver 100 ppb, PBS, inoculum 2.9 × 10^7 CFU/ml), 0.00 ± 0.04 Log10; in data set [1] (Table 3, 30 min, 0.1% cinnamaldehyde (vol/vol), silver 100 ppb, PBS, inoculum 2.1 × 10^7 CFU/ml), 0.12 ± 0.10 Log10; in data set [1] (Table 4, 1 min, 0.5% allspice oil (vol/vol), silver 100 ppb, PBS, inoculum 6.6 × 10^6 CFU/ml), 0.00 ± 0.03 Log10. In addition, the “Reduction (Log10 ± standard deviation)” value in data set [1] (Table 4, 5 min, 0.5% allspice oil (vol/vol), silver 100 ppb, PBS, inoculum 6.6 × 10^6 CFU/ml) was found to be 0.00 ± 0.08 Log10; in data set [1] (Table 4, 10 min, 0.5% allspice oil (vol/vol), silver 100 ppb, PBS, inoculum 6.6 × 10^6 CFU/ml), 0.00 ± 0.12 Log10; in data set [1] (Table 4, 20 min, 0.5% allspice oil (vol/vol), silver 100 ppb, PBS, inoculum 6.6 × 10^6 CFU/ml) it was 0.00 ± 0.23 Log10; in data set [1] (Table 4, 30 min, 0.5% allspice oil (vol/vol), silver 100 ppb, PBS, inoculum 6.6 × 10^6 CFU/ml) it was 0.29 ± 0.32 Log10. For the same molecule, the “No Observable Adverse Effect Level (NOAEL), lifetime limit of silver” value in data set [2] was 10 g.

The values are drawn from patent US9661856B1, “Synergy of plant antimicrobials with silver” (The Arizona Board of Regents on behalf of the University of …, priority 2012, dated 2017).
